Reference: US20220062310A1, “[…] PATIENTS WITH OBSESSIVE-COMPULSIVE DISORDER” (YALE UNIVERSITY, priority 2020, published 2022)

Columns and labels:
humans [1] = details: oral doses of up to 0.6 mg/kg; cited from earlier work
[2] = test system: patients with treatment resistant OCD; assay: Same OCD study: depression scores (Montgomery-Asberg Depression Rating Scale); format: in vivo, human; details: single dose 0.25 mg/kg; scores not high in most subjects
Description: (§1) Research Materials and Measures: Participants can complete self-report and clinician-administered measures of OCD symptoms, anxiety, depression, quality of life, and spirituality at baseline, prior to psilocybin session, and during all designated study visits. […]

[3] = test system: patients with treatment resistant OCD; assay: Same OCD study: state and trait anxiety scores (STAI); format: in vivo, human; details: single dose 0.25 mg/kg
Description: as §1

study participants = details: cited from earlier work
humans [4] = assay: Estimated lethal dose of pure psilocybin in humans; details: 0.25 mg/kg versus LD50 in nonhuman animals and in humans
humans [5] = details: pure psilocybin; cited from earlier work
mice = details: cited from earlier work
rats = details: cited from earlier work
[6] = test system: serotonin 5-hydroxytryptamine (5-HT) receptors; details: after conversion in the body to psilocin; most affinity to 5-HT2A and 5-HT2C, lesser to 5-HT1A; cited from earlier work
OCD symptoms = details: low doses (2 mg-4 mg); cited from earlier work
[7] = non-medical use as mushrooms; cited from earlier work
[8] = test system: patients with treatment resistant OCD; assay: Double-blind, placebo controlled study of psilocybin in OCD (NCT03356483): acute-YBOCS / YBOCS

## CN(C)CCc1c[nH]c2cccc(OP(=O)(O)O)c12 [psilocybin, 3-(2-dimethylaminoethyl)-1H-indol-4-yl] dihydrogen phosphate]
Humans [1]
  serious adverse events: no serious adverse events
[2]
  depression scores (MADRS, FIG. 5): improved after psilocybin in several subjects
[3]
  state anxiety scores (FIG. 6): improved in those subjects whose OCD symptoms also improved
Study participants; 30 mg psilocybin
  reactions requiring pharmacological intervention: no reactions requiring pharmacological intervention occurred
Study participants; healthy study participants
  rates of prolonged psychiatric symptoms of any kind following exposure: 0.08-0.09%
Study participants; meta-analysis, 110 research participants (1 participant)
  participants with distress sufficient to contact the researchers: 0.9%
Study participants; meta-analysis, 110 research participants
  participants who endorsed negative changes in psychological well-being: 7 participants
Study participants; most effects
  duration of common acute side effects: last no longer than six hours
Study participants; over 2000 participants under controlled conditions
  adverse events associated with drug administration: no reports of the occurrence of a significance of adverse events
Study participants; review of studies 1999 to 2008, mild, brief, resolved within three days
  subjects with persistent perceptual symptoms associated with HPPD: one subject (out of 110)
Humans [4]
  full study dose relative to LD50: over 100 times smaller
Humans [5]
  best estimate of a lethal dose: about 19 grams
mice
  LD50: 285 mg/kg
rats
  LD50: 285 mg/kg
[6]
  action at 5-HT receptors: partial agonist
OCD symptoms
  acute effect on OCD symptoms: acutely attenuated OCD symptoms even after low doses
[7]
  share of drug-related emergency department visits that mention it: 0.1%
[8]; open-label, one of three subjects, 12 weeks follow-up
  improvement in OCD symptoms after psilocybin in subjects who had previously received placebo (FIG. 4): robust and lasting improvement in symptoms
[8]; single dose 0.25 mg/kg, the three improved subjects
  persistence of the improvement in symptoms: 12 weeks
[8]; single dose 0.25 mg/kg, three of the subjects receiving psilocybin
  improvement in OCD symptoms (YBOCS, FIG. 2 and 3): robust improvement in symptoms
[8]; single oral dose 0.25 mg/kg, N=5, baseline M=25.5 (18 to 29), SD=11.52, t(3)=2.71, p=0.036
  acute-YBOCS score (M) at 48-hours after drug administration: 15
